Test results from patent USRE49873E1, “APP specific bace inhibitors (ASBIs) and uses thereof” (BUCK INSTITUTE FOR RESEARCH ON AGING, priority 2012, dated 2024).
“Also recorded” adds a separate entry of the source.

Columns and labels:
[1] = biological target: T1, BACE cleavage of the MBP-C125 APP substrate (Homo sapiens, UniProt P05067); assay: ASBI assay a): BACE cleavage of MBP-C125 substrate (C99 by AlphaLISA); type: biochemical
T1 construct: purchased Sigma (methods); R&D (HTS description) B9059; 931-AS-050
T1 sequence (P05067 646-770 limits assumed): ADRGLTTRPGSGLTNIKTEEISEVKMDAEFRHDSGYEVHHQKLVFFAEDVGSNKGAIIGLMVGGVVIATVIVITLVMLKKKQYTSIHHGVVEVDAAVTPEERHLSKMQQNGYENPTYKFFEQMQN
Description: As illustrated in the Examples, in one embodiment, an MBP-C125 APP695 wt fusion protein can be used as one of the substrates. The second substrate can be the commercially available P5-P5′ fluorescence substrate. Each of these substrates is incubated with recombinant BACE (R&D (cat#931-AS-050) in, for example, a 96 well plate format. For the MBP-C125 substrate the C-99 product from the BACE cleavage can be measured using an AlphaLisa assay as a readout. For the P5-5′ substrate the […] upon BACE cleavage can be used as the readout. An ASBI would inhibit the BACE cleavage of the MBP-C125 substrate while not being inhibitory of the fluorescence substrate.
A protein construct of Maltose-Binding-Protein carrying the 125 C-terminal residues of APP (1 uL of 1 mM in water) was incubated with a flavonoid (100 uM) for 15 minutes. The mix was then submitted to cleavage by BACE (Sigma #B9059, 5 μl of 3 unit/ml in BACE buffer) for 30 minutes. After 0, 10, 20 and 30 minutes, 2 uL the reaction mixture were frozen and the different time points were quantified simultaneously for the amount of APP-C99 created. The quantification was done by using a Perkin Elmer ALPHALisa Amyloid Amyloid Beta kit (AL275C) modified by replacing the anti-Abeta acceptor beads (AL275AC) with anti-APP acceptor beads (AL275AC) and making the antibody mix with 2×ALPHALisa buffer. […]

[2] = tested on: sAPPβ production by SH-SY5Y cells; assay: sAPPβ AlphaLisa in SH-SY5Y neuroblastoma cells; type: cell-based
Description: APP is processed through two major pathways: the non-amyloidogenic pathway involves α-secretase cleavage, proteolyzing APP into sAPPα and α-CTF (C83), while the amyloidogenic pathway starts with β-secretase cleavage, cleaving APP into sAPPβ and β-CTF (C99). The β-CTF is then cleaved by the γ-secretase, which produces Aβ and AICD. The ability of the ASBIs to inhibit the β-secretase processing of APP was tested in SH-SY5Y neuroblastoma cells that express APP. The sAPPβ fragment formed from the BACE cleavage product was measured using an AlphaLisa assay from Perkin-Elmer (Cat# A2132). […] Testing of a panel of bioflavonoids led to the identification of galangin as an ASBI.

[3] = tested on: APLP2-Gal4 transactivation in HEK293T cells; assay: APLP2-Gal4/Mint3/TAZ transactivation assay; type: cell-based; conditions: Mint3 and TAZ present, galangin at 10 μM
Description: FIGS. 7A and 7B illustrate inhibition of APP-Gal4 and APLP2-Gal4 transactivation by galangin. […] This transactivation was inhibited by Galangin and BACE inhibitor IV. FIG. 7B: Potent transactivation of transcription was also achieved with APLP2 fused to the Gal4 DNA binding domain when both Mint3 and TAZ were present. This transactivation was inhibited by Galangin and BACE inhibitor IV. […] The normalized luciferase activity is expressed as a percentage of the DMSO treated control (FIGS. 7A, 7B). Error bars indicate SEM. (*, p<0.05; **, p<0.01; ***, p<0.001; n=3, student t test).
This assay system is described by Orcholski et al. (2011) J. Alzheimers Dis., 23(4):689-699. Transactivation is achieved upon transfection with Mint3 and Taz. The ASBI was expected to inhibit only the transactivation of APP-Gal4, not that of APLP2-Gal4. For these experiments cells were co-transfected with a Gal4-luciferase reporter plasmid (to measure transactivation), a beta-galactosidase plasmid (to normalize for transfection efficiency), and the test plasmids identified. The normalized luciferase activity was expressed as fold induction over transcription by APP-Gal4 alone (FIG. 7A), or as fold induction over APLP2-Gal4 alone (FIG. 7B).
HEK293T cells were co-transfected with five plasmids: (1) pG5E1B-luc, 0.3 μg; (2) pCMV-LacZ, 0.1 μg; (3) pMst-APP (APP-Gal4) or pcDNA3.1-APLP2-Gal4, 0.3 μg; (4) pCMV5-Mint3, 1.0 μg; (5) pEF-N-FLAG-TAZ, 1.0 μg. Cells were harvested 48 hr after transfection in 0.2 ml per well Cell Culture Lysis Buffer (Promega), and their luciferase and β-galactosidase activities were determined with the Promega luciferase assay kit and the Promega β-galactosidase assay kit, respectively. The luciferase activity was standardized by the β-galactosidase activity to control for transfection efficiency and general effects on transcription. Transfections were performed at 80-90% cofluency in six-well plates using Lipofectamine 2000 (Invitrogen).

## O=c1c(O)c(-c2ccccc2)oc2cc(O)cc(O)c12 [Galangin]
[1]; HTS at 10 uM, flavonoid panel at 100 uM
  inhibition of BACE cleavage of the MBP-C125 substrate: inhibiting the cleavage of the MBP substrate by BACE
[1]; in the ASBI assays
  dose at which effective as an ASBI: 50 µM
[2]
  APP levels: No effect on APP levels was detected
[2]; 50 μM
  sAPPβ levels: decreased sAPPβ levels
[3]
  APLP2-Gal4 transactivation: inhibited
[3]; listed as galangin
  APLP2-Gal4 transactivation: inhibit; also recorded: inhibits APP-Gal4 and APLP2-Gal4
